Assay results as given in PubChem BioAssay AID328 (DTP/NCI, 2004).
Several values for one entry are separate records, joined by “and”; a condition that tells them apart may be missing. Equal entries are not always repeated. Toxic doses and inconclusive results are not listed. How the source made its calls: active means survival T/C of 150% or more; inactive means T/C below 125% in these data.

Tested on: BDF1 mice, P388 leukemia ip, median survival T/C
Assay: NCI In Vivo Anticancer Drug Screen. Data for tumor model P388 Leukemia (intraperitoneal) in B6D2F1 (BDF1) mice
Details: endpoint: median survival time, higher = longer survival
Summary of the method: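 Transplantable tumour in mice; compound vs vehicle dosing; survival scored; ratio of treated to control reported.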

[1] = dose: 25.0 mg/kg/injection, schedule: Q01DX009 (ip), vehicle: Klucel (hydroxypropylcellulose) (HPC)
[2] = dose: 25.0 mg/kg/injection, schedule: Q04DX003 (ip), vehicle: Klucel (hydroxypropylcellulose) (HPC)
[3] = dose: 50.0 mg/kg/injection, schedule: Q01DX009 (ip), vehicle: Klucel (hydroxypropylcellulose) (HPC)
[4] = dose: 50.0 mg/kg/injection, schedule: Q04DX003 (ip), vehicle: Klucel (hydroxypropylcellulose) (HPC)
[5] = dose: 100.0 mg/kg/injection, schedule: Q04DX003 (ip), vehicle: Klucel (hydroxypropylcellulose) (HPC)
[6] = dose: 100.0 mg/kg/injection, schedule: Q04DX003 (ip), vehicle: saline
[7] = dose: 200.0 mg/kg/injection, schedule: Q04DX003 (ip), vehicle: Klucel (hydroxypropylcellulose) (HPC)
[8] = dose: 25.0 mg/kg/injection, schedule: Q01DX009 (ip), vehicle: saline
[9] = dose: 50.0 mg/kg/injection, schedule: Q01DX009 (ip), vehicle: saline with Tween-80
[10] = dose: 100.0 mg/kg/injection, schedule: Q01DX009 (ip), vehicle: saline with Tween-80
[11] = dose: 50.0 mg/kg/injection, schedule: Q01DX009 (ip), vehicle: saline
[12] = dose: 100.0 mg/kg/injection, schedule: Q01DX009 (ip), vehicle: saline
[13] = dose: 200.0 mg/kg/injection, schedule: Q01DX009 (ip), vehicle: saline
[14] = dose: 400.0 mg/kg/injection, schedule: Q01DX009 (ip), vehicle: saline
[15] = dose: 25.0 mg/kg/injection, schedule: Q01DX009 (ip), vehicle: saline with Tween-80
[16] = dose: 200.0 mg/kg/injection, schedule: Q04DX003 (ip), vehicle: saline with Tween-80

Measured: T/C

NC(CSC(c1ccccc1)(c1ccccc1)c1ccccc1)C(=O)O (configuration not stated)
inactive: dose: 3.0 mg/kg/injection, schedule: Q01DX009 (ip), vehicle: Klucel (hydroxypropylcellulose) (HPC) 122 % of control | dose: 4.8 mg/kg/injection, schedule: Q04DX003 (ip), vehicle: Klucel (hydroxypropylcellulose) (HPC) 108 % of control | dose: 7.2 mg/kg/injection, schedule: Q04DX003 (ip), vehicle: Klucel (hydroxypropylcellulose) (HPC) 100 % of control | dose: 24.0 mg/kg/injection, schedule: Q01DX009 (ip), vehicle: other 115 % of control | dose: 40.0 mg/kg/injection, schedule: Q01DX009 (ip), vehicle: other 123 % of control | [3] 86 % of control | [6] 90 % of control
active: dose: 10.0 mg/kg/injection, schedule: Q01DX009 (ip), vehicle: Klucel (hydroxypropylcellulose) (HPC) 175 % of control | dose: 14.4 mg/kg/injection, schedule: Q01DX009 (ip), vehicle: other 150 % of control | dose: 16.0 mg/kg/injection, schedule: Q01DX009 (ip), vehicle: Klucel (hydroxypropylcellulose) (HPC) 177 % of control | [1] 200 % of control and 204 % of control | [2] 231 % of control | dose: 35.0 mg/kg/injection, schedule: Q01DX009 (ip), vehicle: Klucel (hydroxypropylcellulose) (HPC) 227 % of control | [4] 186 % of control | dose: 66.0 mg/kg/injection, schedule: Q04DX003 (ip), vehicle: saline 272 % of control | [5] 240 % of control

Nc1ccccc1-c1ccccc1N
inactive: [5] 100 % of control | [7] 90 % of control

COc1ccccc1Cc1c(OC)cc(OC)c(C(=O)CCc2ccccc2)c1O
inactive: dose: 0.5 mg/kg/injection, schedule: Q01DX009 (ip), vehicle: saline 103 % of control | dose: 1.0 mg/kg/injection, schedule: Q01DX009 (ip), vehicle: saline 106 % of control

COC(=O)CC1(O)C=CC(=O)C=C1
inactive: dose: 5.0 mg/kg/injection, schedule: Q01DX009 (ip), vehicle: saline 114 % of control | dose: 10.0 mg/kg/injection, schedule: Q01DX009 (ip), vehicle: saline 116 % of control
active: dose: 2.0 mg/kg/injection, schedule: Q01DX009 (ip), vehicle: saline 165 % of control | [8] 153 % of control

Sc1ccc(Nc2c3ccccc3nc3ccccc23)cc1
inactive: [9] 102 % of control and 108 % of control | [10] 100 % of control and 118 % of control

Cc1c(C(=O)O)nc(CC(O)C(Cl)(Cl)Cl)[nH]c1=O (configuration not stated)
inactive: [2] 98 % of control | [4] 97 % of control | [5] 103 % of control | [7] 100 % of control | dose: 400.0 mg/kg/injection, schedule: Q04DX003 (ip), vehicle: Klucel (hydroxypropylcellulose) (HPC) 96 % of control

Nc1ncnc2c1cnn2Cc1ccc(Cl)cc1
inactive: dose: 12.5 mg/kg/injection, schedule: Q04DX003 (ip), vehicle: Klucel (hydroxypropylcellulose) (HPC) 118 % of control | dose: 16.5 mg/kg/injection, schedule: Q04DX003 (ip), vehicle: Klucel (hydroxypropylcellulose) (HPC) 91 % of control and 100 % of control | [1] 90 % of control | [2] 91 % of control and 100 % of control | dose: 37.5 mg/kg/injection, schedule: Q04DX003 (ip), vehicle: Klucel (hydroxypropylcellulose) (HPC) 95 % of control | [3] 95 % of control | [4] 104 % of control

Cc1ncc(O)c(CO)c1O
inactive: [11] 110 % of control | [12] 94 % of control | [13] 99 % of control | [14] 107 % of control

NCC(O)COc1ccccc1N (configuration not stated)
inactive: dose: 3.0 mg/kg/injection, schedule: Q01DX009 (ip), vehicle: saline 100 % of control | dose: 3.0 mg/kg/injection, schedule: Q04DX003 (ip), vehicle: saline 108 % of control and 109 % of control | dose: 6.0 mg/kg/injection, schedule: Q01DX009 (ip), vehicle: saline 100 % of control | dose: 6.0 mg/kg/injection, schedule: Q04DX003 (ip), vehicle: saline 95 % of control and 109 % of control | dose: 12.0 mg/kg/injection, schedule: Q01DX009 (ip), vehicle: saline 96 % of control | dose: 12.0 mg/kg/injection, schedule: Q04DX003 (ip), vehicle: saline 100 % of control and 113 % of control

c1ccc(C(Nc2nccs2)Nc2nccs2)cc1
inactive: dose: 12.5 mg/kg/injection, schedule: Q01DX009 (ip), vehicle: saline with Tween-80 112 % of control | [15] 108 % of control | [9] 96 % of control and 108 % of control

NC(=O)OCCI
inactive: dose: 50.0 mg/kg/injection, schedule: Q04DX003 (ip), vehicle: other 100 % of control | dose: 100.0 mg/kg/injection, schedule: Q04DX003 (ip), vehicle: other 120 % of control | [7] 90 % of control
active: dose: 132.0 mg/kg/injection, schedule: Q04DX003 (ip), vehicle: Klucel (hydroxypropylcellulose) (HPC) 150 % of control and 177 % of control | dose: 200.0 mg/kg/injection, schedule: Q04DX003 (ip), vehicle: other 155 % of control

FC(F)(F)c1cc(NC2=NCCN=C(Nc3cc(C(F)(F)F)cc(C(F)(F)F)c3)SS2)cc(C(F)(F)F)c1
inactive: [3] 102 % of control | dose: 100.0 mg/kg/injection, schedule: Q01DX009 (ip), vehicle: Klucel (hydroxypropylcellulose) (HPC) 96 % of control | dose: 200.0 mg/kg/injection, schedule: Q01DX009 (ip), vehicle: Klucel (hydroxypropylcellulose) (HPC) 110 % of control

Cc1c(C#N)c2nc(C(=O)c3ccc(Br)cc3)cc(-c3ccc(Br)cc3)n2c1C
inactive: [15] 109 % of control | [9] 104 % of control | dose: 50.0 mg/kg/injection, schedule: Q04DX003 (ip), vehicle: saline with Tween-80 87 % of control | [10] 104 % of control | dose: 100.0 mg/kg/injection, schedule: Q04DX003 (ip), vehicle: saline with Tween-80 91 % of control | dose: 200.0 mg/kg/injection, schedule: Q01DX009 (ip), vehicle: saline with Tween-80 109 % of control | [16] 87 % of control | dose: 400.0 mg/kg/injection, schedule: Q04DX003 (ip), vehicle: saline with Tween-80 87 % of control

CCCCc1ccc(C(=O)O)nc1
inactive: dose: 12.5 mg/kg/injection, schedule: Q01DX009 (ip), vehicle: saline 100 % of control | [8] 102 % of control | [11] 102 % of control

CCNc1nncs1
active: [12] 150 % of control and 168 % of control | [16] 165 % of control | dose: 300.0 mg/kg/injection, schedule: Q04DX003 (ip), vehicle: saline with Tween-80 196 % of control
inactive: dose: 30.0 mg/kg/injection, schedule: Q01DX009 (ip), vehicle: saline 116 % of control | dose: 38.0 mg/kg/injection, schedule: Q04DX003 (ip), vehicle: saline with Tween-80 100 % of control | dose: 44.0 mg/kg/injection, schedule: Q01DX009 (ip), vehicle: saline 114 % of control | dose: 58.0 mg/kg/injection, schedule: Q04DX003 (ip), vehicle: saline with Tween-80 100 % of control | dose: 88.0 mg/kg/injection, schedule: Q04DX003 (ip), vehicle: saline with Tween-80 108 % of control | [6] 86 % of control | dose: 150.0 mg/kg/injection, schedule: Q01DX009 (ip), vehicle: saline 105 % of control | dose: 225.0 mg/kg/injection, schedule: Q01DX009 (ip), vehicle: saline 95 % of control

Cc1cccc(C(=O)NN)c1O
inactive: dose: 25.0 mg/kg/injection, schedule: Q01DX009 (ip), vehicle: saline + alcohol 92 % of control | dose: 100.0 mg/kg/injection, schedule: Q01DX009 (ip), vehicle: saline + alcohol 97 % of control

N#Cc1cnccn1
inactive: [12] 100 % of control | [13] 100 % of control | [14] 87 % of control

C1=CC2CCC(C1)C21OCCO1 (configuration not stated)
inactive: [12] 90 % of control | [6] 95 % of control | [13] 109 % of control | dose: 200.0 mg/kg/injection, schedule: Q04DX003 (ip), vehicle: saline 104 % of control | [14] 109 % of control | dose: 400.0 mg/kg/injection, schedule: Q04DX003 (ip), vehicle: saline 108 % of control
